{"source": "patent US5817012A", "about": "“Method of determining an analyte” (Sudormed, Inc., priority 1997, dated 1998)", "key": {"[1]": {"conditions": "Table 2; weak bases (Wilson, J., Abused Drugs, 1990); cited from earlier work"}, "[2]": {"experiment": "Example 6: cocaine collected on patch converted to BE and analyzed with Roche RIA", "conditions": "seven days wear, subject who ingested cocaine, pH 11, 20 minutes", "source_text": "Absorption disks, 3/8 inch in diameter, are cut from Gelman membranes (Gelman 0.45μ (SU-450) Ultrabind Supported Membranes). These 3/8 inch disks are mounted at the center of a 1/4 inch diameter hole cut in the center of a one inch diameter circle of Tegaderm 1625 Transparent Dressing (available from Minnesota Mining and Manufacturing, St. Paul, Minn.) to form a patch.\nThe patches remain in place until they are removed seven days later from each subject.\nFollowing elution, the analyte solutions derived from each of the patches are brought to a pH of 11 by the addition of NaOH to each of the solutions. The solutions are reacted for 20 minutes at pH 11 and at room temperature, after which the solutions are neutralized with HCl."}, "[3]": {"conditions": "cited from earlier work"}, "[4]": {"conditions": "in vivo; cited from earlier work"}, "[5]": {"experiment": "FIG. 14: cocaine in dermal patches after smoked cocaine", "conditions": "42 mg smoked"}, "[6]": {"experiment": "FIG. 13: cocaine in dermal patches after intravenous cocaine HCl", "conditions": "32 mg cocaine HCl intravenously", "procedure": "A dermal patch was then immediately placed on the subject's skin, and after 30 minutes this patch was removed and replaced by a new patch."}, "[7]": {"experiment": "Example 12: amount of cocaine recovered on patch after nasal ingestion", "conditions": "126 mg nasally ingested; about 200 hours wear; 10 cm^2 disk"}, "[8]": {"assay_type": "in vivo, human", "conditions": "60 mg codeine phosphate P.O.; first six hours; heating pad", "protocol": "FIG. 16 is a graph depicting the results of an experiment in which a subject was administered codeine and a dermal patch was then placed on each of the subject's thighs. A heating pad which was heated to 105° F. was then placed over one thigh while the other thigh remained unheated. The patches were replaced each hour for six hours, and a final pair of patches was placed on the subject's thighs for one hour between 24 and 25 hours after the administration of the codeine.\nActive perspiration can be caused by an increase in the body's temperature,such as during exercise. A further experiment was therefore conducted to see whether an increase in the temperature of only one area of the body could cause localized active perspiration. In this experiment, a subject was administered 60 mg of codeine phosphate (in the form of Naldecon CX P.O., 30 ml), and a dermal patch was then placed on each of the subject's thighs. A heating pad which was heated to 105° F. was then placed over one thigh while the other thigh remained unheated. The patches were replaced each hour for six hours, and a final pair of patches was placed on the subject's thighs for one hour between 24 and 25 hours after the administration of the codeine."}, "[9]": {"experiment": "Example 20: codeine level in urine, Tegaderm-only patches and patches with absorbent material (Table 3)", "assay_type": "in vivo, human", "description": "Five patches comprising only Tegaderm™ 1625 wound dressing were applied to a subject. […] Six patches comprising Tegaderm™ 1625 and another absorbent material were also applied to the subject at the same time. The collection surface area of the absorbent material in these patches was 14 cm^2. Prior to applying each of the patches, the area of skin under each patch was first swabbed with alcohol in order to remove any contaminants present on the surface of the skin.\nTwenty-four hours after the initial application of the patches to the subject, a pre-dose urine specimen and one of each of the two patch types were collected. The subject then orally consumed 60 mg of codeine phosphate (30 ml. Naldecon CX-60). This represents a typical codeine dose. At 30 and 48 hours post-dose, urine and one of each type of patch were collected."}, "[10]": {"conditions": "literature (Schwartz; Martindale); cited from earlier work"}, "[11]": {"assay_type": "in vivo, human", "conditions": "seven days wear, subject who smoked a marijuana cigarette", "protocol": "THC polyclonal antibody from sheep (available from Biogenesis, Bournmouth, England) is diluted 1:100 in PBS (pH 7.5). The antibodies are bound to Gelman 0.45μ (SU-450) Ultrabind Supported Membrane, following the protocol in Gelman Original Equipment Manufacturer application P.N. 31,084. The membranes are air dried. Disks, 3/8 inch in diameter, are cut from the coated Gelman membranes.\nEach of the removed membranes is flushed five times with 300 μl of 0.2% Tween 20 in PBS. The membranes are incubated for 30 minutes in 100 μl of E-Z Screen Cannabinoid enzyme conjugate from the E-Z Screen Test Kit (available from Environmental Diagnostics, Inc., Burlington, N.C.).\nAfter incubation, each membrane is flushed three times with 300 μl of 0.2% Tween 20 in PBS, followed by three flushes with PBS alone. The membranes are then incubated in TMB Membrane Peroxide Substrate (available from Kirkegaard & Perry Labs, Gaithersburg, Md.) for 10 minutes. A light blue background appears in all six membranes. […] No white dots appear on the three membranes taken from the subject who has never used marijuana."}}, "note": "“And” between values parts separate entries of the source, which are not always exact repeats. Equal values may be shown once. “Also recorded” adds a separate entry of the source. Where a name gives a salt, the structure may show the parent alone."}
{"smiles": "CC(N)Cc1ccccc1", "note": "(stereo not drawn) [Amphetamine]", "values": [{"measurement": "pKa", "setting": "[1]", "result": 9.8}]}
{"smiles": "CN1[C@H]2CC[C@@H]1[C@@H](C(=O)O)[C@@H](OC(=O)c1ccccc1)C2", "note": "[BE, benzoylecgonine]", "values": [{"measurement": "concentration of BE in the subject's urine over time", "setting": "in vivo", "result": "declining"}, {"measurement": "diagnostic analysis for BE in patch extract", "setting": "[2]", "result": "tests positive"}]}
{"smiles": "COC(=O)[C@H]1[C@@H](OC(=O)c2ccccc2)C[C@@H]2CC[C@H]1N2C", "note": "[Cocaine]", "values": [{"measurement": "back-diffusion from patch", "setting": "almost 200 hours", "result": "without exhibiting significant back-diffusion; also recorded: significant back-diffusion was prevented"}, {"measurement": "concentration of cocaine on the dermal patch over time", "setting": "almost 200 hours after ingestion, no specific binding chemistry", "result": "rose immediately during the first hours of the test, and thereafter stayed at approximately the same level for the remaining 200 hours"}, {"measurement": "stability at pH values higher than 7", "setting": "[3]", "result": "unstable"}, {"measurement": "presence in perspiration and urine", "setting": "[4]", "result": "present in perspiration but not in urine"}, {"measurement": "cocaine concentration in patch, 8 to 24 hours", "setting": "[5]; patch wet with perspiration, worn 8 to 24 hours", "result": "a significant rise in concentration"}, {"measurement": "cocaine concentration in patch, 4 to 8 hours", "setting": "[5]; patch worn between 4 and 8 hours", "result": "a decline"}, {"measurement": "analyte in patch worn 8 to 24 hours compared to patch worn 2 to 4 hours", "setting": "[5]; subject actively perspired", "result": "significantly more analyte diffused into the patch worn between 8 and 24 hours"}, {"measurement": "concentration of cocaine in perspiration after the fourth hour", "setting": "[6]", "result": "a steady decline"}, {"measurement": "cocaine recovered on the patch", "setting": "[7]", "result": "approximately 500 ng"}, {"measurement": "cocaine recovered on the patch (in parentheses)", "setting": "[7]", "result": "~0.5", "unit": "mg"}]}
{"smiles": "COc1ccc2c3c1O[C@H]1[C@@H](O)C=C[C@H]4[C@@H](C2)N(C)CC[C@@]341", "note": "[Codeine, codeine]", "values": [{"measurement": "analyte in patches, heated versus unheated thigh", "setting": "[8]", "result": "contained more analyte than the patches on the unheated thigh"}, {"measurement": "ratio of recovered codeine in the Tegaderm-only patches compared to the patches with an absorbent material", "setting": "[9]; 24.4/18.1", "result": 136, "unit": "%"}, {"measurement": "mean codeine level, all five patches having another absorbent material", "setting": "[9]; 30 and 48 hours post-dose", "result": 18.1, "unit": "ng/mL"}, {"measurement": "mean codeine level, all four Tegaderm-only patches", "setting": "[9]; 30 and 48 hours post-dose", "result": 24.4, "unit": "ng/mL"}, {"measurement": "Codeine Level, patch with absorbent material", "setting": "[9]; 30 hours post-dose, 60 mg codeine phosphate orally, 14 cm^2", "result": "12.40 ng/mL and 23.99 ng/mL"}, {"measurement": "urine codeine level", "setting": "[9]; 48 hours post-dose", "result": "returned to baseline"}, {"measurement": "Codeine Level, urine sample", "setting": "[9]; 48 hours post-dose, 60 mg codeine phosphate orally", "result": 0, "unit": "ng/mL"}, {"measurement": "Codeine Level, patch with absorbent material", "setting": "[9]; 48 hours post-dose, 60 mg codeine phosphate orally, 14 cm^2", "result": "14.39 ng/mL and 19.41 ng/mL and 20.17 ng/mL"}, {"measurement": "Codeine Level, Tegaderm-only patch", "setting": "[9]; 48 hours post-dose, 60 mg codeine phosphate orally, 42 cm^2", "result": "17.69 ng/mL and 23.19 ng/mL"}, {"measurement": "concentration at 30 h", "setting": "[9]; human, urine, po, 30 hours post-dose, 60 mg codeine phosphate orally, read-out: Codeine Level, urine sample", "result": 620, "unit": "ng/mL"}, {"measurement": "retention of codeine by both patch designs", "setting": "[9]; in vivo", "result": "about 48 hours"}, {"measurement": "pre-dose presence of codeine", "setting": "[9]; pre-dose urine and patch specimens", "result": "no codeine was present"}, {"measurement": "Codeine Level, Tegaderm-only patch", "setting": "[9]; predose", "result": 0, "unit": "ng/mL"}, {"measurement": "Codeine Level, patch with absorbent material", "setting": "[9]; predose", "result": 0, "unit": "ng/mL"}, {"measurement": "Codeine Level, urine sample", "setting": "[9]; predose", "result": 0, "unit": "ng/mL"}]}
{"smiles": "CCN(CC)C(=O)[C@@H]1C=C2c3cccc4[nH]cc(c34)C[C@H]2N(C)C1", "note": "[LSD]", "values": [{"measurement": "protection from light", "setting": "[10]", "result": "must be kept from exposure to strong light"}]}
{"smiles": "CN[C@@H](C)Cc1ccccc1", "note": "[Methamphetamine]", "values": [{"measurement": "pKa", "setting": "[1]", "result": 9.9}]}
{"smiles": "c1ccc(C2(N3CCCCC3)CCCCC2)cc1", "note": "[Phencyclidine]", "values": [{"measurement": "pKa", "setting": "[1]", "result": 8.5}]}
{"smiles": "CCCCCc1cc(O)c2c(c1)OC(C)(C)[C@@H]1CCC(C)=C[C@@H]21", "note": "[THC, tetrahydrocannabinol]", "values": [{"measurement": "appearance of white dots on membranes (THC derivatives in sweat)", "setting": "[11]", "result": "White dots appear over the background on the three membranes"}]}
{"smiles": "COC(=O)[C@H]1[C@@H](OC(=O)c2ccccc2)C[C@@H]2CC[C@H]1N2C", "note": "[cocaine hydrochloride]", "values": [{"measurement": "protection from light", "setting": "[10]", "result": "require protection from light"}]}
